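Cultured in 96-well plates, cells were exposed to test compound for 48 hours across five concentrations. TGI denotes the concentration required for complete inhibition of growth.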 Some results are limits rather than exact numbers.

What all share (assay): NCI tumour cell line growth inhibition, 48 h
Assay [1] deals with M19-MEL melanoma.
In assay [2] the test system is P388 leukemia.
Assay [3] relates to SN12K1 renal.
Assay [4] deals with SNB-78 CNS.
For assay [5], the system named is XF 498 CNS.
The subject of assay [6] is P388/ADR leukemia.
The test system of assay [7] is LXFL 529 NSCLC.

Take `O=S(=O)(O)c1cc(N=[N+]([O-])c2ccc(N=Nc3ccccc3)cc2S(=O)(=O)O)ccc1/C=C/c1ccc(N=[N+]([O-])c2ccc(N=Nc3ccccc3)cc2S(=O)(=O)O)cc1S(=O)(=O)O`: the TGI in assay [1] is > 100 µM; in assay [2], > 100 µM; in assay [3] it was > 31.6 µM; in assay [4], > 100 µM; in assay [5], > 100 µM.

As for `O=[N+]([O-])c1ccc(Nc2cccc3c2[nH]c2c(-c4ccccc4)nccc23)c([N+](=O)[O-])c1`, the TGI is > 100 µM in assay [1]; > 69.2 µM in assay [2]; > 100 µM in assay [6]; > 100 µM in assay [4]; > 100 µM in assay [5].

For the compound `CC1=C(C(=O)NCc2ccccc2)C(c2ccco2)C(C(=O)NCc2ccccc2)=C(C)N1`, the TGI in assay [7], in assay [4] and in assay [5] was > 100 µM each time.

On to `Nc1ncc2c(n1)-c1ccccc1OC2`, for which the TGI in assay [1], in assay [2], in assay [3], in assay [4] and in assay [5] was > 100 µM each time.

`CSc1nc(-c2ccccc2)nc(=[N+]2CCOCC2)s1`: the TGI in assay [7], in assay [1] and in assay [4] was > 100 µM in each case.

Values taken from PubChem BioAssay (NCI).
